For the assay, the system named is primary adult human dermal fibroblasts (HDFs). Kind of assay: High-throughput compound screen for selective elimination of senescent cells (cell viability, Hoechst 33342 / SYTOX Green high content imaging) in early proliferating (EP) and deeply senescent (DS) fibroblasts. It is filed as cell-based. Details: key: senolytic: EP cell viability above the 89% EP threshold and DS cell viability below the 87% DS threshold for at least one concentration of the three serial concentrations; prolifolytic: test compounds which decreased EP cell viability below the 89% EP threshold but did not decrease DS cell viability below 87%; cytotoxic: Test compounds which decreased both EP and DS cell viability below their respective thresholds; non-toxic: test compounds which maintained both EP and DS viability above their respective thresholds. The following applies: three serial concentrations, 48 hours incubation, read-out five days post compound addition, thresholds 89% EP, 87% DS, for at least one concentration. Here is the method:
Actinomycin D, a drug widely reported to induce apoptosis in multiple cell types, was optimised for use as a positive 'senolytic control' for the high-throughput compound screen in EP (0.02µM) and DS (0.2µM) HDFs.
In order to perform the high-throughput screen of the test compounds a thorough validation process of the assay was undertaken prior to experimental screening. For both EP and DS HDFs, the following steps were optimised: optimisation of cell seeding densities in 384-well plate format; validation and optimisation of Actinomycin D positive and DMSO-vehicle negative controls; optimisation of high-throughput image acquisition and high content analysis of Hoechst 33342 (ThermoFisher, UK) in combination with SYTOX Green (ThermoFisher, UK) using the INCell 2200 microscope (GE, UK) for cell death phenotypic read-outs; optimisation of liquid handling system protocols; plate uniformity assessments; and a "dry run" of all components in the assay. […]
Following successful high-throughput compound screening of the test compounds in both EP and DS HDFs, a number of post-screen quality control checks were employed prior to hit detection. First, negative and positive control inter- and intra-plate cell number variability was assessed in order to identify potential systemic issues. […]

The structures appear in SMILES notation.

As to `O=C(O)Cn1ccc2ccccc21` [1-indoleacetic acid], the “hit classification based on EP and DS cell viability” value is listed as “senolytic”.

For the origin of these results see patent EP4168130B1, “USE OF INDOLE COMPOUNDS FOR TREATING SIGNS OF SKIN AGING” (Unilever IP Holdings B.V., priority 2020, dated 2021).
